Legend:
[1] = tested on: Phospho-Rb (Ser807/811) in MCF7 cells; experiment: Phospho-Rb expression inhibition in MCF7 cells quantified by in cell Western; assay type: cell-based, human; conditions: Homo sapiens, MCF7, 24 h, 24 hours, in cell Western, read-out: MCF7 pRb IC50
How it was run: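 MCF7 cells were seeded at 20,000/well, grown overnight, then treated 24 h at 37 °C with compound dilutions (0.1% DMSO from 1000× stocks). Fixed cells were co-stained for phospho-Rb Ser807/811 and total Rb. Near-infrared dual-channel in-cell Western imaging was the read-out.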

[2] = tested on: Phospho-Rb (Ser807/811) in SW1573-CDK6 KO cells; experiment: Phospho-Rb expression inhibition in SW1573-CDK6 KO cells quantified by in cell Western; assay type: cell-based; conditions: Homo sapiens, 24 hours, read-out: SW1573 CDK6 KO pRb IC50
Method: (§1) Parental SW1573 cells were obtained from the American Type Culture Collection (ATCC). CDK4 or CDK6 gene in […] cells was knocked out using the CRISPR-Cas9 technology. First, gRNA complex of CDK4 or CDK6 was prepared with Alt-R CRISPR-Cas9 tracrRNA and crRNA CDK4 (5′-[…]-3′ (SEQ ID NO: 4)) or CDK6 (5′-[…]-3′ (SEQ ID NO. 5)) (IDT-Integrated DNA Technologies), and then ribonucleoprotein (RNP) complex of CDK4 or CDK6 was prepared with respective gRNA complex and Alt-R S.p. Cas9 Nuclease V3 (IDT-Integrated DNA Technologies). Next, 5×10^4/10 μL SWJ1573 cells were electroporated with the CDK4 or CDK6 RNP complex and Alt-R Cas9 Electroporation Enhancer using Neon Transfection System (Thermo Fisher). Cells were then plated in a 96-well plate to select single clones for validation of CDK4 or CDK6 knockout by western blot analysis.
(§2) MCF7 cells were obtained from American Type Culture Collection (ATCC, HTB-22). SW1573-CDK6 KO and SW1573-CDK4 KO cells were generated by the CRISPR-Cas9 technology. All cells were plated in 96-well plates (VWR #10062-900, or Corning #3904) in 90 uL culture medium at a density of 20,000 cells/well in the respective growth medium containing 10% FBS and 1% Penicillin Streptomycin, and then incubated at 37° C. overnight. The following day, the test compound was administered to the cells by using 1000× compound stock solution prepared in DMSO at various concentrations. 1000× compound stock solution was first diluted in culturing medium to 10×, then 10 uL compound medium was added to each well in the cell plates. After administration of the compound, the cells were then incubated at 37° C. for 24 hours. Upon completion, the cells were washed with PBS briefly. 150 uL/well of 4% formaldehyde was added and the plates were incubated at room temperature for 20 mins. The cells were washed with PBS briefly, and permeabilized with 150 uL/well of ice cold 100% methanol for 10 mins. The cells were washed with PBS briefly and blocked with 100 uL/well LI-COR blocking buffer for 1 hr at room temperature with gentle shaking. The cells were incubated overnight at 4° C. with 50 uL primary antibody rabbit anti-Phospho-Rb (Ser807/811) (1: 500, Cell Signaling, #8516) and anti-Rb (1:200, Santa Cruz, sc-73598) diluted in Intercept Blocking Buffer (LI-COR, #927-60001) containing 0.1% Tween 20. The next day, the cells were washed with 200 uL PBS containing 0.1% Tween 20, 5×5 mins at room temperature with gentle shaking, and incubated with 50 uL secondary antibody, IRDye® 800CW Goat anti-Rabbit IgG (1:1000, LI-COR, #926-32211) and IRDye®680RD Goat anti-Mouse IgG (1:1000, LI-COR, #926-68070), in LI-COR blocking buffer with 0.2% Tween 20 for 1 hr at room temperature with gentle shaking. The cells were washed with 200 uL PBS containing 0.1% Tween 20, 5×5 mins at room temperature with gentle shaking. The cells were washed with PBS for 5 mins. 100 uL fresh PBS was added to each well and the plates were imaged on a LI-COR Odyssey CLX plate reader.

[3] = tested on: Phospho-Rb (Ser807/811) in SW1573-CDK4 KO cells; experiment: Phospho-Rb expression inhibition in SW1573-CDK4 KO cells quantified by in cell Western; assay type: cell-based; conditions: Homo sapiens, 24 hours, read-out: SW1573 CDK4 KO pRb IC50
Method: as §1, §2

| SMILES | IC50 [1] [nM] | IC50 [2] [nM] | IC50 [3] [nM] |
| --- | --- | --- | --- |
| CC(C)n1c(C2CCC2(F)F)nc2c(F)cc(-c3nc(N[C@@H]4C[C@H]5CO[C@H](O5)[C@H]4O)ncc3Cl)cc21 (stereo partly drawn) [Compound 239, (1S,3R,4S,5R)-3-((5-chloro-4-(2-(2,2-difluorocyclobutyl)-4-fluoro-1-isopropyl-1H-benzo[d]imidazol-6-yl)pyrimidin-2-yl)amino)-6,8-dioxabicyclo[3.2.1]octan-4-ol] | ≤ 40 | ≤ 40 | 150 to 1000 |
| CC(C)n1c(C2CC(F)C2)nc2c(F)cc(-c3nc(N[C@@H]4C[C@H]5CO[C@H](O5)[C@H]4O)ncc3Cl)cc21 (stereo partly drawn) [Compound 243, (1S,3R,4S,5R)-3-((5-chloro-4-(4-fluoro-2-((1r,3R)-3-fluorocyclobutyl)-1-isopropyl-1H-benzo[d]imidazol-6-yl)pyrimidin-2-yl)amino)-6,8-dioxabicyclo[3.2.1]octan-4-ol] |  | 40 to 150 | > 1000 |
| CC(C)n1c([C@H]2C[C@H]2C(=O)N(C)C)nc2c(F)cc(-c3nc(N[C@@H]4C[C@H]5CO[C@H](O5)[C@H]4O)ncc3Cl)cc21 [Compound 248, (1R,2S)-2-(6-(5-chloro-2-(((1S,3R,4S,5R)-4-hydroxy-6,8-dioxabicyclo[3.2.1]octan-3-yl)amino)pyrimidin-4-yl)-4-fluoro-1-isopropyl-1H-benzo[d]imidazol-2-yl)-N,N-dimethylcyclopropane-1-carboxamide] | 40 to 150 | 150 to 1000 | > 1000 |
